Columns and labels:
STING [1] = target: T1, STING (Homo sapiens, UniProt Q86WV6, G230A/H232R/R293Q/R71H); assay: Western blot analysis of activated STING and its downstream protein phosphorylation in THP-1 cells; assay type: cell-based; conditions: 10 μM compound, 3 h, vs DMSO
T1 construct: Human monocyte cell THP-1 were purchased from ATCC (Catalog No. TIB-202); host or cells: THP-1 human monocyte cells
Method: The Western blot analysis of activated STING and its downstream protein phosphorylation in human monocyte THP-1 cells
(§1) Human monocyte cell THP-1 were purchased from ATCC (Catalog No. TIB-202). The complete growth medium was made with ATCC-formulated RPMI-1640 Medium (Catalog No. 30-2001) and supplemented with 2-mercaptoethanol to a final concentration of 0.05 mM, and fetal bovine serum (FBS) to a final concentration of 10%.
After the THP-1 cells were treated with the 10 μM invented compounds for 3 hours, the cells were lysed by RIPA buffer, followed by washing with PBS. The total protein concentration was measured by BCA protein assay. The 10 μg protein sample was loaded after mixing with SDS-PAGE protein loading buffer, separated on SDS-PAGE and transferred to a PVDF membrane using the semi-dry transfer apparatus. After blocking with 5% BSA for 1 hr, the membrane was incubated with 1st antibodies overnight at 4° C., followed by incubation with HRP-conjugated 2nd antibodies (Catalog No. WBULS0100 from Millipore) for another 1 hr at room temperature. Lastly, the immunocomplexes were detected via the Bio-Rad ChemiDoc Touch Imaging System. Antibodies for western blotting were purchased from Cell Signaling Technology, catalog numbers 19781 (p-STING Ser366), 13647 (STING), 5483 (p-TBK1 Ser 172), 3504 (TBK1), 4947 (p-IRF3 Ser396), 4302 (IRF3) and 7074 (HRP-linked anti-rabbit IgG).

STING [2] = target: T1, STING; assay: qPCR analysis of mRNA levels of cytokine gene expression (IFNB, ISG15, CXCL10) in THP-1 cells; assay type: cell-based; conditions: 10 μM compound, 6 h, vs DMSO
Method: as §1, with “qPCR analysis of mRNA levels of cytokine gene expression in THP-1 cell Human” for “Human”
To evaluate the agonistic effects of chemicals on STING, the gene expression of IFNB, ISG15 and CXCL10 in human monocyte THP-1 cells was measured by real time qPCR. After the treatment of 10 μM Compounds for 6 hrs, cells were respectively lysed by TRIzol reagents (from Invitrogen). Total RNA was extracted according to the manufacturer's instruction. mRNA concentration was measured via 3rd generation NanoDrop machine. 1 μg of mRNA was used for the reverse transcription reaction with random primer, dNTP mix, RNase inhibitor and M-MuLV Reverse Transcriptase. SYBR green supermix and hot start DNA polymerase were used in qPCR with TBP gene as an internal control. Gene-specific primers were purchase from Integrated DNA Technologies.

[3] = Tolerability and body weight in CT-26 mouse model; assay type: in vivo; conditions: 3×1.5 mg/kg IP, BALB/c mice bearing CT-26
Method: (§2) Mice were randomized into study groups with 8 mice/group when average tumor volume was ˜70 mm^3. On day 1, 4 and 8 mice were dosed with vehicle or 1.5 mg/kg Cpd 4 (Example 4) in 5% DMSO, 45% PEG400, and 55% saline formulation by intraperitoneal injection. Tumor size and body weight were measured twice per week throughout the study. Tumor volume was calculated by applying length and width caliper measurements to the following formula: TV=0.5*L*W^2. Percent treated/control (T/C) value was calculated as 100×ΔT/ΔC (when ΔT>0) or 100×ΔT/Tsd (when ΔT<0) where ΔT and ΔC are the changes in the mean tumor volumes between the indicated day and the first day of measurement for the treatment and control groups, respectively. Tsd is the first day mean tumor volume of the treated group. Statistical analyses of the differences in tumor volume among the groups were evaluated using a one-way ANOVA. All data were analyzed using GraphPad Prism 8 (GraphPad Software, San Diego, CA). p<0.05 was considered to be statistically significant.

[4] = test system: CT-26 mouse colon adenocarcinoma; assay: Antitumor efficacy in s.c. CT-26 mouse colon adenocarcinoma model; assay type: in vivo, BALB/c mice
Method: Evaluation of Antitumor Efficacy in CT-26 Mouse Model
Six- to eight-week-old male BALB/c mice of 18-20 g were purchased from Taconic Biosciences (La Jolla, CA). Mouse colon carcinoma CT-26 (from ATCC) cells were maintained in RPMI-1640 medium supplemented with 10% fetal bovine serum (FBS), 100 U/ml penicillin and 100 μg/ml streptomycin, and incubated at 37° C. and 5% CO2. The cells growing in an exponential growth phase were harvested and counted for tumor inoculation. Each mouse was inoculated subcutaneously at the left and the right flank with 5×10^4 CT-26 tumor cells in 0.1 ml of serum-free medium for tumor development.
as §2, with “On day 1, 4 and 8 mice were dosed with vehicle or 1.5 mg/kg Cpd 4 (Example 4) in 5% DMSO, 45% PEG400, and 55% saline formulation by intraperitoneal injection.” left out, “Tsd is the first day mean tumor volume of the treated group.” left out, “All data were analyzed using GraphPad Prism 8 (GraphPad Software, San Diego, CA). p<0.05 was considered to be statistically significant.” left out

T1 sequence (Q86WV6 whole entry R71H/G230A/H232R/R293Q): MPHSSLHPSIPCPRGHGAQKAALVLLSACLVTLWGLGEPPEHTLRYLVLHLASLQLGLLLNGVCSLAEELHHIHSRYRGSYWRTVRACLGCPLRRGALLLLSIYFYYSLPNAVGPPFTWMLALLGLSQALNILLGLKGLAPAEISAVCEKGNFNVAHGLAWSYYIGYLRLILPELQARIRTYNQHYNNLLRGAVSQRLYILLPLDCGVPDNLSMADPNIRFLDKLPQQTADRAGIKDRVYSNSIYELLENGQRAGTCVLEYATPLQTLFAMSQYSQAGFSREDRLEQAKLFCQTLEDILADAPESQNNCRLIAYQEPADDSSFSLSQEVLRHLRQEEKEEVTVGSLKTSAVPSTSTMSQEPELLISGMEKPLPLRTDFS

Compound	p-IRF3 level (STING [1])	p-TBK1 level (STING [1])	phosphorylated STING (p-STING) level (STING [1])	mRNA level of CXCL10 (STING [2])	mRNA level of IFNB (STING [2])	mRNA level of ISG15 (STING [2])	body weight [3]	tolerability [3]	tumor growth rate of treated/control (T/C) ([4]; 3×1.5 mg/kg IP (day 1, 4, 8), day 12, s.c. CT-26 in BALB/c mice)	antitumor efficacy (tumor volume) ([4]; 3×1.5 mg/kg IP, s.c. CT-26 in BALB/c mice)
CCn1nc(C)cc1C(=O)Nc1nc2cc(C(N)=O)cnc2n1C/C=C/Cn1c(NC(=O)c2cc(C)nn2CC)nc2cc(C(N)=O)cc(OCCCN3CCNCC3)c21 [Example 8, (E)-3-(4-(5-carbamoyl-2-(1-ethyl-3-methyl-1H-pyrazole-5-carboxamido)-7-(3-(piperazin-1-yl)propoxy)-1H-benzo[d]imidazol-1-yl)but-2-en-1-yl)-2-(1-ethyl-3-methyl-1H-pyrazole-5-carboxamido)-3H-imidazo[4,5-b]pyridine-6-carboxamide]	higher levels	higher levels	higher levels	significantly upregulated	significantly upregulated	significantly upregulated	–	–	–	–
CCn1nc(C)cc1C(=O)Nc1nc2cc(C(N)=O)cnc2n1C/C=C/Cn1c(NC(=O)c2cc(C)nn2CC)nc2cc(C(N)=O)cc(OCCCN3CCOCC3)c21 [Example 4, (E)-3-(4-(5-carbamoyl-2-(1-ethyl-3-methyl-1H-pyrazole-5-carboxamido)-7-(3-morpholinopropoxy)-1H-benzo[d]imidazol-1-yl)but-2-en-1-yl)-2-(l-ethyl-3-methyl-1H-pyrazole-5-carboxamido)-3H-imidazo[4,5-b]pyridine-6-carboxamide]	higher levels	higher levels	higher levels	significantly upregulated	significantly upregulated	significantly upregulated	no bodyweight loss	well-tolerated	19%	highly potent
CCn1nc(C)cc1C(=O)Nc1nc2cc(C(N)=O)cnc2n1C/C=C/Cn1c(NC(=O)c2cc(C)nn2CC)nc2cc(C(N)=O)cc(OCCN3CCOCC3)c21 [Example 10, (E)-3-(4-(5-carbamoyl-2-(1-ethyl-3-methyl-1H-pyrazole-5-carboxamido)-7-(2-morpholinoethoxy)-1H-benzo[d]imidazol-1-yl)but-2-en-1-yl)-2-(1-ethyl-3-methyl-1H-pyrazole-5-carboxamido)-3H-imidazo[4,5-b]pyridine-6-carboxamide]	higher levels	higher levels	higher levels	significantly upregulated	significantly upregulated	significantly upregulated	–	–	–	–
CCn1nc(C)cc1C(=O)/N=c1\n(C)c2cc(C(N)=O)cnc2n1C/C=C/Cn1/c(=N/C(=O)c2cc(C)nn2CC)n(C)c2cc(C(N)=O)cc(OCCCN3CCOCC3)c21 [Example 6, (E)-3-((E)-4-((E)-5-carbamoyl-2-((1-ethyl-3-methyl-1H-pyrazole-5-carbonyl)imino)-3-methyl-7-(3-morpholinopropoxy)-2,3-dihydro-1H-benzo[d]imidazol-1-yl)but-2-en-1-yl)-2-((1-ethyl-3-methyl-1H-pyrazole-5-carbonyl)imino)-1-methyl-2,3-dihydro-1H-imidazo[4,5-b]pyridine-6-carboxamide]	–	–	–	significantly upregulated	significantly upregulated	significantly upregulated	–	–	–	–

Reference: patent US20240132493A1, “IMIDAZOPYRIDINE DERIVATIVES AS STING AGONISTS” (Fulgent Genetics, Inc., priority 2021, published 2024)
